# Laboratory results published in US6573274B1, “Sulfonamide compounds and uses thereof as medicines” (Fujisawa Pharmaceutical Co. Ltd., priority 1998, dated 2003).
# Where a name gives a salt, the structure may show the parent alone.
row,melting point [°C],Structure (SMILES)
1,131 to 134,"CCCCCS(=O)(=O)NC(=O)c1ccc2nc(C)n(Cc3ccc(OCCC)cc3Cl)c2n1 [Example 12, 3-(2-chloro-4-(1-propoxy)benzyl)-2-methyl-5-(1-pentanesulfonylcarbamoyl)-3H-imidazo[4,5-b]pyridine]"
2,154 to 155,"CCCCCOc1ccc(Cn2c(C)nc3ccc(C(=O)NS(=O)(=O)c4ccc(Cl)s4)nc32)c(Cl)c1 [Example 24, 3-[2-chloro-4-(1-pentyloxy)benzyl]-2-methyl-5-[(5-chlorothiophen-2-yl)sulfonylcarbamoyl]-3H-imidazo[4,5-b]pyridine]"
3,152 to 155,"CCCNS(=O)(=O)NC(=O)c1ccc2nc(C)n(Cc3ccc(OCC)cc3Cl)c2n1 [Example 10, 3-(2-chloro-4-ethoxybenzyl)-2-methyl-5-((1-propylaminosulfonyl)carbamoyl)-3H-imidazo[4,5-b]pyridine]"
4,165 to 166,"CCCCCS(=O)(=O)NC(=O)c1ccc2nc(C)n(Cc3ccc(OCC)cc3Cl)c2n1 [Example 8, 3-(2-chloro-4-ethoxybenzyl)-2-methyl-5-(1-pentanesulfonylcarbamoyl)-3H-imidazo[4,5-b]pyridine]"
5,175 to 178,CCCCCS(=O)(=O)NC(=O)c1cc(C)c2nc(C)n(Cc3ccc(C#Cc4ccccc4)cc3Cl)c2n1.[Na]
6,151 to 152,"CCCCS(=O)(=O)NC(=O)c1ccc2nc(C)n(Cc3ccc(OCC)cc3Cl)c2n1 [Example 9, 5-(1-butanesulfonylcarbamoyl)-3-(2-chloro-4-ethoxybenzyl)-2-methyl-3H-imidazo[4,5-b]pyridine]"
7,83 to 85,"CCCCCN(C)c1ccc(Cn2c(C)nc3ccc(C(=O)NS(=O)(=O)CCCCC)nc32)c(Cl)c1 [Example 52, 3-(2-chloro-4-(methyl-(1-pentyl)amino)benzyl)-2-methyl-5-(1-pentanesulfonylcarbamoyl)-3H-imidazo[4,5-b]pyridine]"
8,140 to 142,"CCCCCOc1ccc(Cn2c(CC)nc3ccc(C(=O)NS(=O)(=O)CCCC)nc32)c(Cl)c1 [Example 66, 5-(1-butanesulfonylcarbamoyl)-3-(2-chloro-4-(1-pentyloxy)benzyl)-2-ethyl-3H-imidazo[4,5-b]pyridine]"
9,236 to 239,"CCC/C=C/S(=O)(=O)NC(=O)c1ccc2nc(C)n(Cc3ncc(NC(=O)OCC)cc3Cl)c2n1 (as salt: sodium) [Example 133, 3-[(3-chloro-5-(N-(ethoxycarbonyl)amino)pyridin-2-yl)methyl]-2-methyl-5-((E)-1-penten-1-ylsulfonylcarbamoyl)-3H-imidazo[4,5-b]pyridine]"
10,233 to 234,"CCC/C=C/S(=O)(=O)NC(=O)c1ccc2nc(C)n(Cc3ccc(NC(=O)OCC)cc3Cl)c2n1 [Example 114, 3-(4-ethoxycarbonylamino-2-chlorobenzyl)-2-methyl-5-((E)-1-penten-1-ylsulfonylcarbamoyl)-3H-imidazo[4,5-b]pyridine]"
11,145 to 146,"CCCCCOc1ccc(Cn2c(C)nc3ccc(C(=O)NS(=O)(=O)CCCC)nc32)c(Cl)c1 [Example 21, 5-(1-butanesulfonylcarbamoyl)-3-(2-chloro-4-(1-pentyloxy)benzyl)-2-methyl-3H-imidazo[4,5-b]pyridine]"
12,161 to 163,CCCCCS(=O)(=O)NC(=O)c1ccc2nc(C)n(Cc3cnc(Cl)cc3Cl)c2n1
13,229 to 231,"CCCCCS(=O)(=O)NC(=O)c1ccc2nc(C)n(Cc3ccc4c(nc(C)n4C)c3Cl)c2n1 [Example 120, 3-[(4-chloro-1,2-dimethyl-1H-benzimidazol-5-yl)methyl]-2-methyl-5-(1-pentanesulfonylcarbamoyl)-3H-imidazo[4,5-b]pyridine]"
14,198 to 199,"CCCCCS(=O)(=O)NC(=O)c1ccc2nc(C)n(Cc3ccc(NC(=O)OC(C)C)cc3Cl)c2n1 [Example 108, 3-(4-(N-(isopropoxycarbonyl)amino)-2-chlorobenzyl)-2-methyl-5-(1-pentanesulfonylcarbamoyl)-3H-imidazo[4,5-b]pyridine]"
15,242 to 244,"CCC/C=C/S(=O)(=O)NC(=O)c1ccc2nc(C)n(Cc3ncc(NC(=O)OC(C)C)cc3Cl)c2n1 [Example 136, 3-[(5-(N-(isopropoxycarbonyl)amino)-3-chloropyridin-2-yl)methyl]-2-methyl-5-((E)-1-penten-1-ylsulfonylcarbamoyl)-3H-imidazo[4,5-b]pyridine]"
16,149 to 150,"CCCCCS(=O)(=O)NC(=O)c1ccc2nc(C)n(Cc3ccc(N(C)C(=O)OCC)cc3Cl)c2n1 [Example 145, 3-(4-(N-(ethoxycarbonyl)-N-methylamino)-2-chlorobenzyl)-2-methyl-5-(1-pentanesulfonylcarbamoyl)-3H-imidazo[4,5-b]pyridine]"
17,180 to 181,"CCCCS(=O)(=O)NC(=O)c1ccc2nc(C)n(Cc3ccc(OCC4CCCC4)cc3Cl)c2n1 [Example 28, 5-(1-butanesulfonylcarbamoyl)-3-(2-chloro-4-((cyclopentylmethyl)oxy)benzyl)-2-methyl-3H-imidazo[4,5-b]pyridine]"
18,151 to 152,"CCCCCS(=O)(=O)NC(=O)c1ccc2nc(C)n(Cc3ccc(N(C)C(=O)OC(C)C)cc3Cl)c2n1 [Example 96, 3-(2-chloro-4-(N-methyl-N-(isopropoxycarbonyl)amino)benzyl)-2-methyl-5-(1-pentanesulfonylcarbamoyl)-3H-imidazo[4,5-b]pyridine]"
19,> 250,CCCCCS(=O)(=O)NC(=O)c1ccc2nc(C)n(Cc3ccc(-c4ccc(Cl)s4)cc3Cl)c2n1.[Na]
20,160 to 161,"CCCCCS(=O)(=O)NC(=O)c1ccc2nc(C)n(Cc3ccc(OCC4CCCC4)cc3Cl)c2n1 [Example 27, 3-(2-chloro-4-((cyclopentylmethyl)oxy)benzyl)-2-methyl-5-(1-pentanesulfonylcarbamoyl)-3H-imidazo[4,5-b]pyridine]"
21,138 to 141,"CCCCS(=O)(=O)NC(=O)c1ccc2nc(C)n(Cc3ccc(OC(C)C)cc3Cl)c2n1 [Example 15, 5-(1-butanesulfonylcarbamoyl)-3-(2-chloro-4-isopropoxybenzyl)-2-methyl-3H-imidazo-[4,5-b]pyridine]"

row,Structure (SMILES),melting point [°C]
1,"CCCCOc1ccc(Cn2c(C)nc3ccc(C(=O)NS(=O)(=O)CCCC)nc32)c(Cl)c1 [Example 18, 5-(1-butanesulfonylcarbamoyl)-3-(2-chloro-4-(1-butoxy)benzyl)-2-methyl-3H-imidazo[4,5-b]pyridine]",144 to 145
2,"CCCCCS(=O)(=O)NC(=O)c1ccc2nc(C)n(Cc3ccc(NC(=O)OC(C)(C)C)cc3Cl)c2n1 [Example 97, 3-(4-(N-(tert-butoxycarbonyl)amino)-2-chlorobenzyl)-2-methyl-5-(1-pentanesulfonylcarbamoyl)-3H-imidazo[4,5-b]pyridine]",222 to 224
3,"CCCCCS(=O)(=O)NC(=O)c1ccc2nc(C)n(Cc3ccc(N(CC)C(=O)OC(C)(C)C)cc3Cl)c2n1 [Example 72, 3-[4-(N-(tert-butoxycarbonyl)-N-ethylamino)-2-chlorobenzyl]-2-methyl-5-(1-pentanesulfonylcarbamoyl)-3H-imidazo[4,5-b]pyridine]",131 to 132
